Measured values as given in patent US6762045B2, “Membrane derived caspase-3, compositions comprising the same and methods of use therefor” (Idun Pharmaceuticals, Inc., priority 2000, dated 2004).
Like-named read-outs stand apart in the source and are kept apart here.

Assays:
[1] = biological target: MN9D HM (caspase-1 treated) derived caspase; assay: Inhibition of DEVD-amc cleavage, caspase-1 activated MN9D heavy membranes; format: biochemical, mouse
Method: (§1) Caspase activity was measured by mixing 50 μl of an enzyme-containing fraction and 200 μl of 25 μM DEVD-amc (Asp-Glu-Val-Asp-aminomethylcoumarin; SEQ ID NO:6) substrate in ICE buffer (20 mM HEPES, 1 mM EDTA, 0.1% CHAPS, 10% sucrose, 5 mM DTT, pH 7.5) in duplicate Cytoplate wells. Product formation was monitored by the increase in fluorescence (ex=360 nm, em=460 nm) over 1-2 hours at 30° C. using the CytoFluor 4000 plate reader (Perseptive Biosystems, Framingham, Mass.). For kinetic studies, the substrate concentration was varied in the range 1-200 μM. KM values were calculated from these measurements using the equation: […]
(§2) where ΔFL/Δt is the observed initial rate of fluorescence change at substrate concentration [S] and (ΔFL/Δt)MAX is the initial rate of fluorescence change at saturating substrate concentrations. […] Inhibitor IC50 values were determined using the equation: […]
(§3) ΔFL/Δt is the observed initial rate of fluorescence change at inhibitor concentration [I] and (ΔFL/Δt)o is the initial rate fluorescence change for the uninhibited enzyme. […]
(§4) To determine if the presence of membrane derived caspase activity is a general property of mammalian cells, the DEVD-amc cleavage activity in heavy membranes from two other cell sources was measured: mouse E 15 primary brain cortical cells and the mouse dopaminergic MN9D cell line (Choi et al., […] 89:8943-8947, 1992). […]

caspase-1 = biological target: T1, caspase-1 (Mus musculus, UniProt P29452); assay: Caspase-1 inhibition; format: biochemical; conditions: 300 nM
T1 construct: contains the p30 caspase-1 cDNA inserted into the Nde I/BamH I sites of the pET3a expression vector; FLAG; made in house; host or cells: E. coli BL21 (DE3) pLysS, pET3a; used as clarified bacterial lysate
T1 sequence (P29452 119-296 limits assumed): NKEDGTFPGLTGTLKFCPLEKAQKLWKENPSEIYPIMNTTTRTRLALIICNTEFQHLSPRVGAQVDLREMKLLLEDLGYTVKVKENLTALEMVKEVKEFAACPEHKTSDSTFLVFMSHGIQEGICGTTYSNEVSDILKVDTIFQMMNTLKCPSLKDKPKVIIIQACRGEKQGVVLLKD
T1 sequence (P29452 315-402 limits assumed): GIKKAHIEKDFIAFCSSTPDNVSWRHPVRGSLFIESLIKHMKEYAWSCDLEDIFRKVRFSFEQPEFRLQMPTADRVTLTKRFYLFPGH

[2] = biological target: T2, caspase-1 activation of membrane derived procaspase-3 (Mus musculus, UniProt P29452); assay: Caspase-1 mediated activation of membrane procaspase-3 in 697 heavy membranes; format: biochemical, human
T2 construct: contains the p30 caspase-1 cDNA inserted into the Nde I/BamH I sites of the pET3a expression vector; FLAG; made in house; host or cells: caspase-1: E. coli BL21 (DE3) pLysS lysate; procaspase-3: endogenous in 697 cell heavy membranes
T2 sequence (P29452 119-296 limits assumed): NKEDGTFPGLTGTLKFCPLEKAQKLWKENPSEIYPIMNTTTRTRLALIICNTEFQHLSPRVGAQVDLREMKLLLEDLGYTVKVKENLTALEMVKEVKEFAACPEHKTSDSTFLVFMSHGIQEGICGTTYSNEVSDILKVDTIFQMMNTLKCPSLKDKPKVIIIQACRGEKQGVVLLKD
T2 sequence (P29452 315-402 limits assumed): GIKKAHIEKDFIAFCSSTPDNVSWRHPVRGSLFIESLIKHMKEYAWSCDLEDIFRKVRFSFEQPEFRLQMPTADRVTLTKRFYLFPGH
Method: Heavy membrane samples were diluted to 1 mg/ml in hypotonic buffer or in 0.25 M sucrose, 10 mM MOPS, 2 mM EDTA, pH 7.4 (Mancini, et al., 1998) containing 5 mM DTT with or without 1% NP-40. […] After the activation period, the heavy membrane pellet was removed from the sample by centrifugation for 10 min at 14,000×g at 4° C. […] In some experiments, caspase-1 activity was rapidly quenched at specific time points by the addition of one-tenth volume 3 μM YVADaldehyde (Bachem Bioscience, King of Prussia, Pa.) prior to centrifugation. To examine the time course of spontaneous activation of caspase activity from membranes, 50 μi of heavy membrane slurry containing 50-100 μg total protein was mixed with 200 μl hypotonic buffer containing 25 μM DEVD-amc substrate and 6 mM DTT in 96 well Cytofluor plates and fluorescence was measured over time. At selected time points, aliquots were removed from some wells, centrifuged for 10 min at 14,000×g to remove the heavy membranes and the supernatant was added back into the 96 well plate to measure the soluble DEVD-amc cleavage activity. […]
In this experiment, heavy membrane fractions (containing 50 μg total protein) from 697-Bcl-2 and 697-neo cells were re-suspended and treated with murine caspase-1 for one hour at room temperature. Following centrifugation, the DEVD-amc cleavage activity of the resulting supernatant was measured.

[3] = test system: cortical cell HM (caspase-1 treated) derived caspase; assay: Inhibition of DEVD-amc cleavage, caspase-1 activated E15 brain cortical cell heavy membranes; format: biochemical, mouse
Method: as §1, §2, §3, §4

[4] = biological target: T3, 697-neo HM (caspase-1 treated) derived caspase (Homo sapiens, UniProt P42574); assay: Inhibition of DEVD-amc cleavage, caspase-1 activated 697-neo heavy membranes; format: biochemical
T3 construct: the heavy membrane caspase is comprised of a large 19-kDa subunit and a smaller 12-kDa subunit; endogenous in cells; host or cells: 697-neo / 697-Bcl-2 human lymphoblastoid cells; supernatant assayed
T3 sequence (P42574 14-175): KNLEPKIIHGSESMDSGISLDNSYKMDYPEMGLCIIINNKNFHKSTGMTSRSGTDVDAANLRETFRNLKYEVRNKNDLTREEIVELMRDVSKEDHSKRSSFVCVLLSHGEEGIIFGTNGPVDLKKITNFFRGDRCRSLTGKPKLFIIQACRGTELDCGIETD
T3 sequence (P42574 176-277): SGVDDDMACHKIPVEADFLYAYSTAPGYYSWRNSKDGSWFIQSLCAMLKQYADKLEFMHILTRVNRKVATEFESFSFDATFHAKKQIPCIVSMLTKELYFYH
Method: (§5) SEQ ID NO:6) substrate in ICE buffer (20 mM HEPES, 1 mM EDTA, 0.1% CHAPS, 10% sucrose, 5 mM DTT, pH 7.5) in duplicate Cytoplate wells. […] KM values were calculated from these measurements using the equation: where ΔFL/Δt is the observed initial rate of fluorescence change at substrate concentration [S] and (ΔFL/Δt)MAX is the initial rate of fluorescence change at saturating substrate concentrations. For inhibition studies, 50 μl of the enzyme was pretreated with 150 μl inhibitor for 30 min at room temperature prior to the addition of 50 μl of 50 μM substrate solution.

[5] = biological target: T4, 697 Bcl-2 HM (caspase-1 treated) derived caspase (Homo sapiens, UniProt P42574); assay: Inhibition of DEVD-amc cleavage, caspase-1 activated 697-Bcl-2 heavy membranes; format: biochemical
T4 construct: the heavy membrane caspase is comprised of a large 19-kDa subunit and a smaller 12-kDa subunit; endogenous in cells; host or cells: 697-neo / 697-Bcl-2 human lymphoblastoid cells; supernatant assayed
T4 sequence (P42574 14-175): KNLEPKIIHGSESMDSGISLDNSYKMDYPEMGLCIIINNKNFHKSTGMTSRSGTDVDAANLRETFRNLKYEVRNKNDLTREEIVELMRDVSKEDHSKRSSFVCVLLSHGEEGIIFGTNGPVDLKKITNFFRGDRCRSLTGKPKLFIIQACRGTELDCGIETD
T4 sequence (P42574 176-277): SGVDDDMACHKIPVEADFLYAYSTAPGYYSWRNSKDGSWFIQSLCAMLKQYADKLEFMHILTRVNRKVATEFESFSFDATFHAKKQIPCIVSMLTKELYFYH
Method: as §5

[6] = biological target: T5, recombinant human caspase-3 (r-caspase-3 (His)6) (Homo sapiens, UniProt P42574); assay: DEVD-amc cleavage by recombinant caspase-3; format: biochemical
T5 construct: The large subunit of purified bacterially expressed caspase-3 migrates as a 17-kDa band; purified fully-processed recombinant human caspase-3; His6 (C); made in house; host or cells: E. coli BL21 (DE3), pET21b; Ni2+ chelating column
T5 sequence (P42574 29-175 limits assumed): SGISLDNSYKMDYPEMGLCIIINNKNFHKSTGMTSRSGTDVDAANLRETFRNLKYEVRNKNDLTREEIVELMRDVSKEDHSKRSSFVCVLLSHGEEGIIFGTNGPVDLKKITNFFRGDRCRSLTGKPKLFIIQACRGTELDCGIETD
T5 sequence (P42574 176-277 limits assumed): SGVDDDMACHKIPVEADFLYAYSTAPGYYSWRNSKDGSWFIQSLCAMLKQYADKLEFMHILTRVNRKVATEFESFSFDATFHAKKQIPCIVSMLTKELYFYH
Method: (§6) For inhibition studies, 50 μl of the enzyme was pretreated with 150 μl inhibitor for 30 min at room temperature prior to the addition of 50 μl of 50 μM substrate solution.

[7] = biological target: T6, purified membrane derived caspase-3 (Homo sapiens, UniProt P42574); assay: DEVD-AMC cleavage by affinity purified membrane derived caspase-3 from 697 cells; format: biochemical
T6 construct: the heavy membrane caspase is comprised of a large 19-kDa subunit and a smaller 12-kDa subunit; endogenous in cells; host or cells: 697 human lymphoblastoid cells
T6 sequence (P42574 14-175): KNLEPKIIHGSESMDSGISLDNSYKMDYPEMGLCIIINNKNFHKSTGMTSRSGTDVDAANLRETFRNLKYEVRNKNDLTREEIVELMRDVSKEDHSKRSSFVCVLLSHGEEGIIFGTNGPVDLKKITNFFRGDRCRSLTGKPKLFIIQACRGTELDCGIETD
T6 sequence (P42574 176-277): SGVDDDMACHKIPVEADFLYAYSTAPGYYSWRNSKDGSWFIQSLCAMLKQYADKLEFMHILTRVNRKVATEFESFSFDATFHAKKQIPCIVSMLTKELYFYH
Method: as §6

Molecule: CC(=O)N[C@@H](Cc1ccc(O)cc1)C(=O)N[C@H](C(=O)N[C@@H](C)C(=O)N[C@H](C=O)CC(=O)O)C(C)C [YVAD-ald]
- IC50 [1]: > 10 µM
- Inhibition of caspase-1 (caspase-1): completely inhibits
- Block of caspase-1 activation of membrane caspase ([2]; 200 nM): completely blocked
- Block of activation of DEVD-AMC hydrolytic activity and generation of 20-kDa large subunit ([2]; caspase-1 pretreated with 300 nM): blocks
- IC50 [3]: > 10 µM
- Inhibition of DEVD-AMC hydrolysis activity of caspase-1 activated membrane caspase ([4]; 300 nM): not inhibited
- IC50 ([4]; inhibition of DEVD-amc cleavage): > 10 µM
- IC50 [5]: > 10 µM
- IC50 ([6]; inhibition of DEVD-amc cleavage, read-out: IC50 r-caspase-3 (His)6): > 10 µM
- IC50 ([6]; read-out: IC50 caspase-3): > 10 µM

Molecule: CC(C)[C@H](NC(=O)[C@H](CCC(=O)O)NC(=O)OCc1ccccc1)C(=O)N[C@H](C=O)CC(=O)O [ZEVDald]
- IC50 ([7]; inhibition of DEVD-AMC cleavage, Table III, read-out: IC50 Membrane (purified membrane derived caspase-3)): 32 nM

B1: Baculovirus p35: early p35 protein from Autographa californica nuclear polyhedrosis virus, recombinant (protein)
chain: MCVIFPVEIDVSQTIIRDCQVDKQTRELVYINKIMNTQLTKPVLMMFNISGPIRSVTRKNNNLRDRIKSKVDEQFDQLERDYSDQMDGFHDSIKYFKDEHYSVSCQNGSVLKSKFAKILKSHDYTDKKSIEAYEKYCLPKLVDERNDYYVAVCVLKPGFENGSNQVLSFEYNPIGNKVIVPFAHEINDTGLYEYDVVAYVDSVQFDGEQFEEFVQSLILPSSFKNSEKVLYYNEASKNKSMIYKALEFTTESSWGKSEKYNWKIFCNGFIYDKKSKVLYVKLHNVTSALNKNVILNTIK
- IC50 ([7]; read-out: IC50 heavy membrane caspase from 697 cells): 0.074 nM
- IC50 ([6]; inhibition of DEVD-AMC cleavage, Table III, read-out: IC50 Recombinant (caspase-3)): 4.1e-05 µM
